Results as given in patent US20260076983A1, “CANNABINOIDS COMPOSITIONS WITH POLYUNSATURATED FATTY ACID MONOGLYCERIDES AS A SPECIFIC COX-2 INHIBITOR, METHODS AND USES THEREOF” (SCF PHARMA INC., priority 2022, published 2026).

Molecular target: T1, COX-2 enzyme (Homo sapiens, UniProt P35354)
T1 construct: PGE2 levels in lipopolysaccharide (LPS)-challenged human whole blood; from tissue; host or cells: human whole blood (heparin tube) from one volunteer, LPS-challenged ex vivo
T1 sequence (P35354 18-604): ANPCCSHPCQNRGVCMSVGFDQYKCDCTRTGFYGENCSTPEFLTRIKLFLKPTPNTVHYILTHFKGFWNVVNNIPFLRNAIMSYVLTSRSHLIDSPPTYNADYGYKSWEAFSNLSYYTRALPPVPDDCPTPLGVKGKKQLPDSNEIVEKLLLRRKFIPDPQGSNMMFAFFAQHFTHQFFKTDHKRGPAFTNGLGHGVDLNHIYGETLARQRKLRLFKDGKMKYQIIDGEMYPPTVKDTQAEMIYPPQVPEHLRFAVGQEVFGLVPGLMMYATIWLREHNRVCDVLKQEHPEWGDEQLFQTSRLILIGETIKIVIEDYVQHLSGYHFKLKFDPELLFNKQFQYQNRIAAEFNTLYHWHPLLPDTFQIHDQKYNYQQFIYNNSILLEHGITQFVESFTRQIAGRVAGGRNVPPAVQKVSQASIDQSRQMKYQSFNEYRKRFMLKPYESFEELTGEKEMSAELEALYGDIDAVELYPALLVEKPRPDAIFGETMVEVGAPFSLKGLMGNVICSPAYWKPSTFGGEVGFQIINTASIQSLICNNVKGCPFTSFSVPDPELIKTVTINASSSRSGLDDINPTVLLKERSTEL
Assay: PGE2 levels in LPS-challenged human whole blood after oral capsules (human case study)
Format: in vivo
Details: cross-over, blood 3.5 h after dosing
Protocol: 200 mg of cannabidiol (CBD) dissolved in 2.0 g of MCT oil, 2.0 g of compound of formula (IV) alone and 200 mg of cannabidiol (CBD) dissolved in 2.0 g of compound of formula (IV) were separately encapsulated in four (4) hard gel capsules (size 00) for a cross over COX-2 case study. A pilot cross-over case study was conducted in one volunteer over a three (3) week periods with one experiment per week. In the morning of the experiment, 10 ml of blood was collected in heparin tube from the volunteer fasted for 10 h. The four (4) hard gel capsules were swallowed with a glass of water and blood collection was repeated after 3.5 h. PGE2 levels in lipopolysaccharide (LPS)-challenged human whole blood was measured as biochemical index for cyclooxygenase COX-2 activity (Brideau C, Kargman S, Liu S, Dallob A L, Ehrich E W, Rodger I W, Chan C C. A human whole blood assay for clinical evaluation of biochemical efficacy of cyclooxygenase inhibitors. Inflamm Res. 1996 February; 45(2):68-74. doi: 10.1007/BF02265118. PMID: 8907587).
100 mg of cannabidiol (CBD) dissolved in 2.0 g of compound of formula (IV) was encapsulated in four (4) hard gel capsules (size 00) for COX-1 and COX-2 case study. A pilot case study was conducted in one volunteer. In the morning of the case study, 20 ml of blood was collected (1×10 ml serum tube and 1×10 ml heparin tube) from the volunteer fasted for 10 h. […]

CC/C=C\C/C=C\C/C=C\C/C=C\C/C=C\CCCC(=O)OCC(O)CO (centres unmarked) [compound of formula (IV)]
inhibition of the COX-2 enzyme (Example 1, one volunteer, oral hard gel capsules, 200 mg CBD in 2.0 g MCT oil, 2.0 g compound of formula (IV) alone, 200 mg CBD in 2.0 g compound of formula (IV)): 10% | inhibition of the COX-2 enzyme (in words) (Example 3, one volunteer, 2.0 g compound of formula (IV), oral capsules): mild inhibition
